molecular target: SARS-CoV-2 3CL-protease (Severe acute respiratory syndrome coronavirus 2, UniProt P0DTD1); test: SARS-CoV-2 3C-Like (3CL) Protease Fluorescence Assay (FRET); format: biochemical; settings: SARS-CoV-2 3CL-protease 10 nM, test compounds 0-10 μM, duplicate, read-out: IC50

SMILES | IC50 [nM]
CC(C)C[C@@H](C(=O)N1C[C@]2(C[C@H]1C#N)C(=O)Nc1ccccc12)N(C)C(=O)[C@H](C)NC(=O)C(F)(F)C(F)(F)F [Example 136] | < 100
CC(C)C[C@@H](C(=O)N1C[C@]2(C[C@H]1C#N)C(=O)Nc1ccccc12)N(C)C(=O)[C@H](C)NC(=O)c1ccc(-c2ccc(F)cc2)cc1F [Example 149] | < 100
CC(C)C[C@@H](C(=O)N1C[C@]2(C[C@H]1C#N)C(=O)Nc1ccccc12)N(C)C(=O)[C@@H]1CC[C@H](c2ccccc2)N1 [Example 159] | < 100
C[C@@H](C(=O)N(C)[C@@H](CC(C)(C)C)C(=O)N1C[C@]2(C[C@H]1C#N)C(=O)Nc1ccccc12)N1CCCC1=O [Example 152] | 100 to 1000
CC(C)C[C@@H](C(=O)N1C[C@]2(C[C@H]1C#N)C(=O)Nc1ccccc12)N(C)C(=O)[C@H](C)NC(=O)c1ccc(F)c(F)c1 [Example 165] | < 100
C[C@@H](C(=O)N(C)[C@@H](CC(C)(C)C)C(=O)N1C[C@]2(C[C@H]1C#N)C(=O)Nc1ccccc12)n1cc(C2CC2)nn1 [Example 157] | < 100
CC(C)C[C@@H](C(=O)N1C[C@]2(C[C@H]1C#N)C(=O)Nc1ccccc12)N(C)C(=O)[C@H](C)NC(=O)C12CC(C(F)(F)F)(C1)C2 [Example 279] | < 100
CC(C)C[C@@H](C(=O)N1C[C@]2(C[C@H]1C#N)C(=O)Nc1ccccc12)N(C)C(=O)[C@H](C)NC(=O)C1(F)CCCC1 [Example 143] | < 100
C[C@H](NC(=O)C(F)(F)C(F)(F)F)C(=O)N(C)[C@@H](CC(C)(C)C)C(=O)N1C[C@]2(C[C@H]1C#N)C(=O)Nc1ccc(Cl)cc12 [Example 174] | < 100
C[C@@H]1NC(=O)CCCCCCc2ccc3c(c2)[C@@]2(C[C@@H](C#N)N(C2)C(=O)[C@H](CC(C)(C)C)NC1=O)C(=O)N3 [Example 379] | > 1000
CC(C)N1C[C@@H]2CCC[C@@H]2[C@H]1C(=O)N(C)[C@@H](CC(C)(C)C)C(=O)N1C[C@]2(C[C@H]1C#N)C(=O)Nc1ccccc12 [Example 181] | < 100
C[C@@H]1NC(=O)CCCCCc2ccc3c(c2)[C@@]2(C[C@@H](C#N)N(C2)C(=O)[C@H](CC(C)(C)C)NC1=O)C(=O)N3 [Example 375] | > 1000
CC(C)C(NC(=O)C(F)(F)F)C(=O)N1CC[C@H](c2ccccc2)[C@H]1C(=O)N1C[C@]2(C[C@H]1C#N)C(=O)Nc1ccccc12 (stereo partly shown) [Example 344] | < 100
CC(C)(C)C[C@H](NC(=O)[C@H](CC1CC1)NC(=O)c1ccc(F)c(F)c1)C(=O)N1C[C@]2(C[C@H]1C#N)C(=O)Nc1ccccc12 [Example 326] | < 100
CC(C)(C)C[C@H](NC(=O)[C@H](CC1CC1)NC(=O)c1cn(C2CC2)nn1)C(=O)N1C[C@]2(C[C@H]1C#N)C(=O)Nc1ccccc12 [Example 324] | < 100
CN(C(=O)[C@@H]1CC[C@H](C(F)(F)F)N1C)[C@@H](CC(C)(C)C)C(=O)N1C[C@]2(C[C@H]1C#N)C(=O)Nc1ccccc12 [Example 234] | < 100
CC(C)(C)C[C@H](NC(=O)[C@H](CC1CC1)NC(=O)c1cnn(C2CC2)c1)C(=O)N1C[C@]2(C[C@H]1C#N)C(=O)Nc1ccccc12 [Example 323] | < 100
CC(C)C[C@@H](C(=O)N1C[C@]2(C[C@H]1C#N)C(=O)Nc1ccccc12)N(C)C(=O)[C@H](C)NC(=O)C(F)(F)CC(C)C [Example 142] | < 100
[2H]C([2H])([2H])N(C(=O)[C@H](C)NC(=O)C(F)(F)F)[C@@H](CCCC)C(=O)N1C[C@]2(C[C@H]1C#N)C(=O)Nc1ccccc12 [Example 191] | < 100
C[C@H](NC(=O)OCc1ccccc1)C(=O)N[C@@H](CC(C)(C)C)C(=O)N1C[C@]2(C[C@H]1C#N)C(=O)Nc1ccccc12 [Example 227] | < 100
CC(C)C[C@@H](C(=O)N1C[C@]2(C[C@H]1C#N)C(=O)Nc1ccccc12)n1cccc(NS(=O)(=O)C2CC2)c1=O [Example 353] | < 100
CC(C)C[C@@H](C(=O)N1C[C@]2(C[C@H]1C#N)C(=O)Nc1ccccc12)N(C)C(=O)[C@H](C)NC(=O)C12CC(F)(C1)C2 [Example 278] | < 100
C[C@H](NC(=O)C(F)(F)C(F)(F)F)C(=O)N(C)[C@@H](CC(C)(C)C)C(=O)N1C[C@]2(C[C@H]1C#N)C(=O)Nc1c(Cl)cc(Cl)cc12 [Example 173] | < 100
CC(C)(C)C[C@H](NC(=O)[C@H](CC1CC1)NC(=O)c1ccc(C(C)(C)C)cc1)C(=O)N1C[C@]2(C[C@H]1C#N)C(=O)Nc1ccccc12 [Example 304] | < 100
CN(C(=O)c1cc2c([nH]1)CN(C(=O)C(F)(F)F)CC2)[C@@H](CC(C)(C)C)C(=O)N1C[C@]2(C[C@H]1C#N)C(=O)Nc1ccccc12 [Example 175] | 100 to 1000

SMILES | IC50 [nM]
CC(C)C[C@@H](C(=O)N1C[C@]2(C[C@H]1C#N)C(=O)Nc1ccccc12)N(C)C(=O)[C@H](C)NC(=O)C1(F)CC1 [Example 296] | < 100
C[C@@H]1NC(=O)CCCCCCCc2ccc3c(c2)[C@@]2(C[C@@H](C#N)N(C2)C(=O)[C@H](CC(C)(C)C)NC1=O)C(=O)N3 [Example 376] | > 1000
CC(C)(C)C[C@H](NC(=O)[C@H](CC1CC1)NC1CCCCC1)C(=O)N1C[C@]2(C[C@H]1C#N)C(=O)Nc1ccccc12 [Example 316] | 100 to 1000
CC(C)(C)C[C@H](NC(=O)[C@H](CC1CC1)NC(=O)C1CC2(CCC2)C1)C(=O)N1C[C@]2(C[C@H]1C#N)C(=O)Nc1ccccc12 [Example 321] | < 100
CC(C)N1c2ccccc2C[C@H]1C(=O)N(C)[C@@H](CC(C)(C)C)C(=O)N1C[C@]2(C[C@H]1C#N)C(=O)Nc1ccccc12 [Example 184] | < 100
CC(C)C[C@@H](C(=O)N1C[C@]2(C[C@H]1C#N)C(=O)Nc1ccccc12)N(C)C(=O)[C@H](C)NC(=O)C1(F)CCC1 [Example 272] | < 100
CC(C)(C)C[C@H](NC(=O)[C@@H](NC(=O)C(F)(F)c1ccccc1)c1ccccc1)C(=O)N1C[C@]2(C[C@H]1C#N)C(=O)Nc1ccccc12 [Example 249] | < 100
C[C@H](NC(=O)C(F)(F)CCc1ccccc1)C(=O)N(C)[C@@H](CC(C)(C)C)C(=O)N1C[C@]2(C[C@H]1C#N)C(=O)Nc1ccccc12 [Example 244] | < 100
CC(C)C[C@@H](C(=O)N1C[C@]2(C[C@H]1C#N)C(=O)Nc1ccccc12)N(C)C(=O)[C@H](C)NC(=O)C1(C(F)(F)F)CC1 [Example 297] | < 100
CC(C)C[C@@H](C(=O)N1C[C@]2(C[C@H]1C#N)C(=O)Nc1ccccc12)N(C)C(=O)[C@H](C)NC(=O)C(C)C [Example 217] | < 100
C[C@H](NC(=O)c1cc2ccccc2n1-c1ccccc1)C(=O)N(C)[C@@H](CC(C)(C)C)C(=O)N1C[C@]2(C[C@H]1C#N)C(=O)Nc1ccccc12 [Example 281] | < 100
CC(C)N1C[C@]2(C[C@H]1C(=O)N(C)[C@@H](CC(C)(C)C)C(=O)N1C[C@]3(C[C@H]1C#N)C(=O)Nc1ccccc13)C(=O)Nc1ccccc12 [Example 183] | 100 to 1000
CC(C)(C)C[C@H](NC(=O)[C@H](CC1CC1)NC(=O)c1cnn(-c2ccc(C(F)(F)F)cc2)c1)C(=O)N1C[C@]2(C[C@H]1C#N)C(=O)Nc1ccccc12 [Example 306] | < 100
CC(C)C[C@@H](C(=O)N1C[C@]2(C[C@H]1C#N)C(=O)Nc1ccccc12)N(C)C(=O)[C@H](C)NC(=O)C(F)(F)C(C)C [Example 276] | < 100
CN(C(=O)[C@@H]1C[C@@H](C(F)(F)F)CN1)[C@@H](CC(C)(C)C)C(=O)N1C[C@]2(C[C@H]1C#N)C(=O)Nc1ccccc12 [Example 229] | < 100
CC(C)N1[C@H](C(=O)N(C)[C@@H](CC(C)(C)C)C(=O)N2C[C@]3(C[C@H]2C#N)C(=O)Nc2ccccc23)CC[C@@H]1C(F)(F)F [Example 235] | 100 to 1000
CC(C)(C)C[C@H](NC(=O)[C@@H](Nc1ccc(F)cc1)C1CC1)C(=O)N1C[C@]2(C[C@H]1C#N)C(=O)Nc1ccccc12 [Example 338] | < 100
CC(C)C[C@@H](C(=O)N1C[C@]2(C[C@H]1C#N)C(=O)Nc1ccccc12)N(C)C(=O)[C@H](C)NC(=O)c1ccc(F)cc1C(F)(F)F [Example 145] | < 100
CN(C(=O)[C@H](CC1CC1)NC(=O)C(F)(F)C(F)(F)F)[C@@H](CC1CC1)C(=O)N1C[C@]2(C[C@H]1C#N)C(=O)Nc1ccccc12 [Example 347] | < 100
C[C@H](NC(=O)C(F)(F)c1ccc(F)cc1)C(=O)N(C)[C@@H](CC(C)(C)C)C(=O)N1C[C@]2(C[C@H]1C#N)C(=O)Nc1ccccc12 [Example 308] | < 100
CC(C)(C)C[C@H](NC(=O)c1ccc(F)cc1)C(=O)N[C@@H](CC(C)(C)C)C(=O)N1C[C@]2(C[C@H]1C#N)C(=O)Nc1ccccc12 [Example 225] | < 100
C[C@H](NC(=O)C(F)(F)C(F)(F)F)C(=O)N(C)[C@@H](CC1CC1)C(=O)N1C[C@]2(C[C@H]1C#N)C(=O)Nc1ccc(Br)cc12 [Example 167] | < 100
CCN(C(=O)[C@H](C)NC(=O)c1ccc(F)cc1)[C@@H](CC(C)C)C(=O)N1C[C@]2(C[C@H]1C#N)C(=O)Nc1ccccc12 [Example 372] | < 100
CC(C)[C@H](Nc1ccc(F)cc1)C(=O)N[C@@H](CC(C)(C)C)C(=O)N1C[C@]2(C[C@H]1C#N)C(=O)Nc1ccccc12 [Example 337] | 100 to 1000

system: 229E human corona virus (hCoV); test: 229E live virus assay (MRC-5 cells, CPE, ATPlite readout); format: cell-based, hCoV-229E; settings: Human coronavirus 229E, MRC5, 144 h, read-out: 229E EC50

SMILES | EC50 [nM]
CC(C)[C@@H](NC(=O)OCc1ccccc1)C(=O)N[C@@H](CC(C)(C)C)C(=O)N1C[C@]2(C[C@H]1C#N)C(=O)Nc1ccccc12 [Example 87] | > 1000

same assay, conditions: Human coronavirus 229E, MRC5, 144 h; hCoV-229E in MRC-5 cells, MOI 0.05, 6 days at 34° C., ATPlite, run in duplicate; read-out: 229E EC50

SMILES | EC50 [nM]
CC(C)C[C@@H](C(=O)N1C[C@]2(C[C@H]1C#N)C(=O)Nc1ccccc12)N(C)C(=O)[C@H](C)NC(=O)C(F)(F)C(F)(F)F [Example 136] | < 100
CC(C)C[C@@H](C(=O)N1C[C@]2(C[C@H]1C#N)C(=O)Nc1ccccc12)N(C)C(=O)[C@H](C)NC(=O)C(F)(F)F [Example 135] | < 100
CC(C)C[C@@H](C(=O)N1C[C@]2(C[C@H]1C#N)C(=O)Nc1ccccc12)N(C)C(=O)[C@H](C)NC(=O)c1ccc(-c2ccc(F)cc2)cc1F [Example 149] | < 100
CC(C)C[C@@H](C(=O)N1C[C@]2(C[C@H]1C#N)C(=O)Nc1ccccc12)N(C)C(=O)[C@@H]1CC[C@H](c2ccccc2)N1 [Example 159] | 100 to 1000
C[C@@H](C(=O)N(C)[C@@H](CC(C)(C)C)C(=O)N1C[C@]2(C[C@H]1C#N)C(=O)Nc1ccccc12)N1CCCC1=O [Example 152] | 100 to 1000
CC(C)C[C@@H](C(=O)N1C[C@]2(C[C@H]1C#N)C(=O)Nc1ccccc12)N(C)C(=O)[C@H](C)NC(=O)c1ccc(F)c(F)c1 [Example 165] | < 100
C[C@@H](C(=O)N(C)[C@@H](CC(C)(C)C)C(=O)N1C[C@]2(C[C@H]1C#N)C(=O)Nc1ccccc12)n1cc(C2CC2)nn1 [Example 157] | < 100
CC(C)OC(=O)N[C@H](C(=O)N(C)[C@@H](Cc1ccccc1)C(=O)N1C[C@]2(C[C@H]1C#N)C(=O)Nc1ccccc12)C(C)(C)C [Example 31] | < 100

— patent US20260138988A1, “Spiropyrrolidine Derived Antiviral Agents” (Enanta Pharmaceuticals, Inc., priority 2021, published 2026)
